Measured values taken from PMC9982066, “Inhibition of Ehrlichia chaffeensis infection by cell-permeable macrocyclic peptides that bind type IV secretion effector Etf-1” (PNAS Nexus, 2023).
Starred links: 1 amine or outer side, 2 acyl side, 3 side chain; linkers in the order of their positions; H or OH if unused. Positions of bridges follow the written chain, without caps; N, C: chain ends. Non-standard residues stand in square brackets, D forms with d. Residues, ends and D or L forms follow the SMILES beside them. *: point of attachment. 5FAM = O=C1OC2(c3ccc(O)cc3Oc3cc(O)ccc32)c2ccc(C(=O)*)cc21; Trimesoyl = O=C(c1cc(C(=O)[*:2])cc(C(=O)[*:3])c1)[*:1]; Phe(4-Cl) = N[C@@H](Cc1ccc(Cl)cc1)C(=O)O; Phe(4-F) = N[C@@H](Cc1ccc(F)cc1)C(=O)O; d2Nal = N[C@H](Cc1ccc2ccccc2c1)C(=O)O; βAsp = O=C(O)[C@H](CC(=O)[*:2])N[*:1]; Phg = N[C@H](C(=O)O)c1ccccc1; Dap = NC[C@H](N)C(=O)O; βAla = NCCC(=O)O

Experiments:
E. chaffeensis [1] = assay: morphological examination of E. chaffeensis infection of THP-1 cells by Diff-Quik staining; settings: for E. chaffeensis infection (numbers and sizes of morulae): THP-1 cells, Fig. S4 (with Figs. 5, S3)
Procedure: Ehrlichia chaffeensis Arkansas strain ([43]) was cultured in THP-1 cells (ATCC, Manassas, VA, USA) in RPMI 1640 medium (Corning, Manassas, VA, USA) supplemented with 8% FBS (Atlanta Biologicals, Flowery Branch, GA, USA) and 4 mM L-glutamine (at 37°C under 5% CO2 in a humidified atmosphere. THP-1 cells were seeded at 1 × 10^5 cells/well (in 1.5-mL RPMI 1640 culture medium with 8% FBS, 4 mM L-Gln) in a 12-well plate, then infected with host cell-free E. chaffeensis at an MOI (multiplicity of infection, or numbers of bacteria per cell) of ∼30. Cells were cultured in a humidified incubator with 5% CO2 and 95% air. No antibiotic was used throughout the study. At 0.5 h post infection (pi), cells were incubated with 1–10 μM of peptides or with an equal volume of DMSO (solvent control, 2 μL per mL medium). At 2 days pi, cells were washed with 1 mL of PBS, and two drops of cells were cytospun onto glass slides by a Shandon Cytospin 4 cytocentrifuge (Thermo Fisher Scientific), then fixed and stained with HEMA 3 staining solutions (Thermo Fisher Scientific). Ehrlichia infection was observed and images were captured by a SPOT RT digital camera (Diagnostic Instruments, Sterling Heights, MI, USA) coupled to a Nikon Eclipse E400 microscope (Nikon, Melville, NY, USA).

THP-1 cells = assay: CellTiter-Glo luminescent cell viability assay; settings: 2-day treatment; for cell viability: 20 μM; for cytotoxicity: up to 10 μM
Excerpt: THP-1 (human promyelocytic leukemia) cells are widely used as E. chaffeensis infection studies of human monocytes in vitro, since initial characterization of infection ([31]).
Fig. 4. Cytotoxicity and proteolytic stability of Etf-1-binding peptides. (A) Effect of Etf-1-binding peptides on the viability of THP-1 cells as determined by CellTiter-Glo luminescent assay. Relative luminescence was plotted as function of the peptide concentration, with the cell viability of DMSO control group set as 100%. (B) Plot of the amount of intact peptide remaining as a function of the incubation time in 25% human serum. All values are normalized to that of peptide at time 0 (100%).
Cytotoxicity of Etf-1-binding peptides was examined by CellTiter-Glo luminescent cell viability assay (Promega, Madison, WI, USA). THP-1 cells were seeded in a transparent 96-well plate at a density of 5 × 10^3 cells/well (100 μL in each well) in RPMI-1640 containing 10% FBS and 1% antibiotics and cultured overnight. Etf-1-binding peptides were serially diluted in DPBS from a DMSO stock and added to the cells with the final concentration of 0–25 μM and a constant final concentration of 0.5% DMSO (v/v). After incubation at 37°C with 5% CO2 for 46 h, the plate was removed and pre-equilibrated to RT before the addition of 100 μL of the CellTiter-Glo 2.0 reagent to each well. The plate was incubated for 15 min on a rotary shaker in the dark, and the luminescence was detected (1-s integration time) on a Tecan Infinite M1000 Pro microplate reader. Relative luminescence was plotted as function of the peptide concentration, with the cell viability of DMSO control group set as 100%.

Etf-1 [2] = target: T1, Etf-1 (Ehrlichia chaffeensis, UniProt Q2GG12); assay: FP assay of Etf-1 binding with FAM-labeled peptides
T1 sequence (Q2GG12 entry or part of it): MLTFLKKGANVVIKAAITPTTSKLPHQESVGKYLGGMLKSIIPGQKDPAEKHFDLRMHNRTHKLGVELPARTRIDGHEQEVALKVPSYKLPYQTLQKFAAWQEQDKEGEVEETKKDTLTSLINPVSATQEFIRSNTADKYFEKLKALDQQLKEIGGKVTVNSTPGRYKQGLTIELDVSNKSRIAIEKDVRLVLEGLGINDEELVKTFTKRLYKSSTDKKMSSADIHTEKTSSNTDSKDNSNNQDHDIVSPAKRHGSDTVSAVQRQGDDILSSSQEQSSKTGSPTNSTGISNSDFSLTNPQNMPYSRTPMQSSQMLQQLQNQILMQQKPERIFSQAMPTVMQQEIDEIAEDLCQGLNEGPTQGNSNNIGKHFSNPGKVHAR
Procedure: The peptides were labeled at their C-terminus with carboxyfluorescein (FAM) through a β-Ala-β-Ala-Lys linker and evaluated for binding to Etf-1 by using a fluorescence polarization (FP) assay. […] This outcome is not unexpected, as screening OBOC libraries is often complicated by false positives, due to the presence of high ligand densities on library beads ([28]).
(§1) Fig. 2. Determination of binding affinity of Etf-1-binding peptides by FP assay. […] FAM-labeled peptide (50 nM) was incubated with serially diluted Etf-1 (starting from 25–30 μM in PBS, pH 7.4, supplemented with 5 mM DTT and 0.01% Triton X-100) for 1 h at RT. FP values were measured on a Tecan Infinite M1000 Pro plate reader. Titration curves (n ≥ 3) were fitted using GraphPad Prism and analyzed with TraceDrawer to calculate dissociation constants (KD). […] Data were analyzed using GraphPad Prism and fitted to a four-parameter variable slope equation to determine IC50 values.
Etf-1 and macrocyclic peptides were serially diluted in PBS supplemented with 5 mM DTT and 0.01% Triton X-100 (v/v). FAM-labeled peptides (50 nM) were prepared from a 10-μM DMSO stock and incubated with serially diluted Etf-1 for 1 h at room temperature (RT). Twenty microliters of the solutions were transferred to a black 384-well plate (Greiner Bio-One) and FP values were measured on a Tecan Infinite M1000 Pro plate reader with excitation and emission wavelengths at 470 and 535 nm, respectively. Titration curves (n ≥ 3) were fitted using GraphPad Prism v8.0 (GraphPad, La Jolla, CA, USA), and analyzed with TraceDrawer software v1.8 (Ridgeview Instruments AB, Uppsala, Sweden) to calculate the dissociation constant (KD, in nM).

E. chaffeensis [3] = assay: E. chaffeensis infection of THP-1 cells, qPCR of 16S rRNA gene normalized to human actin; assay type: cell-based, Ehrlichia chaffeensis; settings: 10 μM, 2 days, vs DMSO control
Procedure: Therefore, we investigated whether these Etf-1-binding peptides can prevent the proliferation of E. chaffeensis inside host cells. THP-1 cells were infected with E. chaffeensis, then treated with the peptides at 30 min post infection (pi) for 2 days. Intracellular infection and proliferation of E. chaffeensis inside host THP-1 cells were assessed using quantitative PCR (qPCR) analysis based on E. chaffeensis 16S rRNA gene normalized by human actin (ACT) gene.
Fig. 5. Effects of Etf-1-binding peptides on E. chaffeensis infection of THP-1 cells. Ehrlichia chaffeensis-infected THP-1 cells at […] were incubated with 10 μM of Etf-1-binding macrocyclic peptide or DMSO control for 2 days.
No antibiotic was used throughout the study.
DNA was extracted from each sample using Qiagen blood mini kit according to the manufacturer's instructions (Qiagen, Valencia, CA, USA), and qPCR analysis was performed in an MX3000P qPCR instrument (Stratagene, San Diego, CA, USA) using SYBR Green Real-Time PCR Master Mix (Thermo Fisher Scientific) according to the manufacturer's instructions. Five-fold serial dilutions of the control group were used to generate a standard curve to calculate the relative copy numbers of E. chaffeensis 16S rRNA normalized against human actin genes using the MX3000P software from Stratagene as described previously ([18], [44]).

Etf-1 [4] = target: T1, Etf-1; assay: biochemical; assay type: binding; settings: unlabeled competitor peptides vs FAM-B7-133-8
Procedure: as §1
Serial dilutions of competitor peptide (0-20 μM) were prepared from DMSO stock solutions into PBS containing 0.01% Triton-X100 and 2 mM TCEP and added to aliquots of the equilibrated Etf-1/probe solution. After incubation for 1 h in the dark and with gentle mixing, 20 μL of each sample was transferred into 384-well black-on-black microplates and FP was measured using a TECAN Infinite M1000 plate reader. Data were analyzed using GraphPad PRISM ver. 8.0 and fit to a four-parameter variable slope equation to determine IC50 values. IC50 values reported are the mean ± SD of n = 2–4 independent experiments.

BECN1 binding to Etf-1 = assay: streptavidin magnetic beads pull-down of BECN1 with biotin-Etf-1, Western blot; assay type: biochemical; settings: 10 µM peptide; for BECN1/Etf-1 Ratio: band intensities, DMSO control set as 1, Fig. 8B
Procedure: Fig. 8.
Streptavidin magnetic beads (15 µL, Pierce, Rockford, IL, USA) were washed with 1 mL of Bind/Wash buffer (25 mM Tris, pH 7.4; 250 mM NaCl, 0.1% Tween 20), and incubated with 0.15 µg ([…] final concentration) of biotinylated full-length Etf-1 protein in bind/wash buffer at 4°C overnight with end-to-end rotation. Beads were washed three times with Bind/Wash buffer, then incubated with Etf-1-binding macrocyclic peptides (10 µM) or DMSO control in Bind/Wash buffer at room temperature for 2 h. […] Beads were washed three times, and proteins were eluted from the beads with 50 µL of 2× SDS-sample buffer. […] Reacting bands were visualized with enhanced chemiluminescence by incubating the membrane with LumiGLO chemiluminescent reagent (Thermo Fisher Scientific). Images were captured by Amersham Imager 680 (GE Healthcare) and densitometry analysis was performed using ImagQuaNT (GE Healthcare). In each specimen, band intensities were normalized against those of actin as the loading control, and the ratios of the treatment group to the control group were calculated with the value in the control groups arbitrarily set as 1.0.

[5] = LDH release assay (plasma membrane damage); assay type: cell-based; settings: Fig. S2
Procedure: LDH release assay (Promega) was performed to assess the level of plasma membrane damage in a cell population by these compounds. […] Control wells contained 10 μL of lysis buffer, cell-free complete growth media, or positive LDH control. Following incubation at 37°C and 5% CO2 for 45 to 75 min, the culture was centrifuged and 50 μL of the growth medium was withdrawn from each well, transferred to a clear 96-well plate, mixed with 50 μL of LDH substrate mixture, and incubated at RT for 30 min with gentle mixing. Finally, 50 μL of 1 N HCl was added to each well, and the absorbances at 490 and 680 nm were immediately measured on a Tecan Infinite M1000 plate reader. Relative membrane leakage was calculated and plotted using GraphPad Prism v8.0.

Row | Compound | E. chaffeensis infection (numbers and sizes of morulae) (E. chaffeensis [1]) | cell viability (THP-1 cells) | cytotoxicity (THP-1 cells) | Kd (Etf-1 [2]) [µM] | inhibition of E. chaffeensis infection (E. chaffeensis [3]) | competition for Etf-1 binding (Etf-1 [4]) | BECN1/Etf-1 Ratio (BECN1 binding to Etf-1) | cytotoxicity (cell lysis in treated groups) (E. chaffeensis [1]; THP-1 host cells) | release of lactate dehydrogenase (LDH) [5] | disruption of BECN1 binding to Etf-1 (BECN1 binding to Etf-1; compared to DMSO control)
1 | CC(C)C[C@H]1NC(=O)[C@H](CO)NC(=O)[C@H]2CCCN2C(=O)[C@H](CCC(N)=O)NC(=O)[C@H](Cc2c[nH]cn2)NC(=O)[C@H](Cc2ccc(O)cc2)NC(=O)c2cc3cc(c2)C(=O)NC[C@H](NC1=O)C(=O)N[C@@H](Cc1ccc(Cl)cc1)C(=O)N[C@H](Cc1ccc2ccccc2c1)C(=O)N[C@H](CCCNC(=N)N)C(=O)N[C@@H](CCCNC(=N)N)C(=O)N[C@H](CCCNC(=N)N)C(=O)N[C@@H](CCCNC(=N)N)C(=O)N[C@H](C(N)=O)CNC3=O [Peptide B7-16, TMA-Tyr-His-Gln-pro-Ser-leu-Dap-4-ClPhe-nal-arg-Arg-arg-Arg-Dap] (YHQ[dP]S[dL][Dap][Phe(4-Cl)][d2Nal][dR]R[dR]R[Dap]-NH2; linker N-7-14 via Trimesoyl) | significantly inhibited | slightly reduced the cell viability | no cytotoxicity | 2 ± 0.2 | significantly inhibited | – | – | – | – | –
2 | CC(C)C[C@H]1NC(=O)C[C@@H](C(=O)O)NC(=O)[C@@H](Cc2ccc(O)cc2)NC(=O)[C@H](c2ccccc2)NC(=O)[C@H](CC(=O)O)NC(=O)[C@H](Cc2ccc(F)cc2)NC(=O)[C@H](Cc2ccc(O)cc2)NC(=O)c2cc3cc(c2)C(=O)NC[C@H](NC1=O)C(=O)N[C@@H](Cc1ccc(Cl)cc1)C(=O)N[C@H](Cc1ccc2ccccc2c1)C(=O)N[C@H](CCCNC(=N)N)C(=O)N[C@@H](CCCNC(=N)N)C(=O)N[C@H](CCCNC(=N)N)C(=O)N[C@@H](CCCNC(=N)N)C(=O)N[C@H](C(=O)NCCC(=O)NCCC(=O)N[C@@H](CCCCNC(=O)c1ccc2c(c1)C(=O)OC21c2ccc(O)cc2Oc2cc(O)ccc21)C(N)=O)CNC3=O [Peptide B7-131-4, TMA-Tyr-Fpa-Asp-Phg-tyr-isoAsp-leu-Dap-4-ClPhe-nal-arg-Arg-arg-Arg-Dap] (Y[Phe(4-F)]D[Phg][dY][βAsp][dL][Dap][Phe(4-Cl)][d2Nal][dR]R[dR]R[Dap][βAla][βAla]K(5FAM)-NH2; linker N-8-15 via Trimesoyl) | only slightly reduced | slightly reduced the cell viability | no cytotoxicity | – | – | Competition for Etf-1 binding was observed | 0.91 | – | – | –
3 | CC(C)C[C@H]1NC(=O)[C@H](C)NC(=O)[C@H](CC(=O)O)NC(=O)[C@@H](Cc2ccc3ccccc3c2)NC(=O)[C@H]2CCCN2C(=O)[C@H](Cc2c[nH]cn2)NC(=O)[C@H](Cc2ccc(O)cc2)NC(=O)c2cc3cc(c2)C(=O)NC[C@H](NC1=O)C(=O)N[C@@H](Cc1ccc(Cl)cc1)C(=O)N[C@H](Cc1ccc2ccccc2c1)C(=O)N[C@H](CCCNC(=N)N)C(=O)N[C@@H](CCCNC(=N)N)C(=O)N[C@H](CCCNC(=N)N)C(=O)N[C@@H](CCCNC(=N)N)C(=O)N[C@H](C(N)=O)CNC3=O [Peptide B7-131-5, TMA-Tyr-His-pro-nal-Asp-Ala-leu-Dap-4-ClPhe-nal-arg-Arg-arg-Arg-Dap] (YH[dP][d2Nal]DA[dL][Dap][Phe(4-Cl)][d2Nal][dR]R[dR]R[Dap]-NH2; linker N-8-15 via Trimesoyl) | significantly inhibited | greater loss of cell viability | – | – | significantly inhibited | Competition for Etf-1 binding was observed | 0.23 | certain degrees of cytotoxicity | significant release of lactate dehydrogenase | disrupted BECN1 binding to Etf-1
